Data reported in PubChem BioAssay (NCI).
“And” between values parts separate entries of the source, which are not always exact repeats. Identical values can stand only once.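 Values below derive from 48-hour exposures of cells grown in 96-well plates, with endpoints linearly interpolated between the two concentrations bracketing the appropriate inhibition level. Here, GI50 denotes the concentration required for 50% inhibition of growth. TGI marks complete inhibition of growth.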

Columns and labels:
Experiment in all cases: growth of human tumour cells (NCI), 48 h
[1] = system: NCI-H23 lung
[2] = system: SNB-75 CNS
[3] = system: UO-31 renal
[4] = system: SR leukemia
[5] = system: MOLT-4 leukemia
[6] = system: HL-60(TB) leukemia
[7] = system: RXF 393 renal
[8] = system: RPMI-8226 leukemia
[9] = system: DU-145 prostate
[10] = system: SF-539 CNS

| Compound | GI50 [1] | TGI [1] | GI50 [2] | TGI [2] | GI50 [3] | TGI [3] | GI50 [4] | TGI [4] | GI50 [5] | TGI [5] | GI50 [6] | TGI [6] | GI50 [7] | TGI [7] | GI50 [8] | TGI [8] | GI50 [9] | TGI [9] | GI50 [10] | TGI [10] |
| --- | --- | --- | --- | --- | --- | --- | --- | --- | --- | --- | --- | --- | --- | --- | --- | --- | --- | --- | --- | --- |
| COc1cc(-c2oc(=O)ccc2C#Cc2ccccn2)cc(OC)c1OC | 2.4 µM | > 29.4 µM | 1.93 µM | > 29.8 µM | 3.22 µM | > 100 µM | 0.257 µM | > 39.9 µM | 4.14 µM | > 100 µM | 2.14 µM | 6.4 µM | 0.273 µM | 2.09 µM | 1.8 µM | 9.59 µM | 3.48 µM | > 29.5 µM | 3.03 µM | 13.8 µM |
| CN1CCN(C2CCN(C(=O)Nc3cc(Oc4ccc(NC(=O)C5(C(=O)Nc6ccc(F)cc6)CC5)c(F)c4)ccn3)CC2)CC1 | 1.23 µM | > 3.42 µM | 0.365 µM | > 1.97 µM | 1.46 µM | > 10 µM | 0.53 µM | 1.77 µM | 0.803 µM | > 2.7 µM | 1.39 µM | > 3.33 µM | 0.918 µM | > 2.4 µM | 1.62 µM | > 2.63 µM | 1.41 µM | > 10 µM | 0.994 µM | > 2.2 µM |
| CC1(C)S[C@@H]2[C@H](NC(=O)C3(N)CCCCC3)C(=O)N2[C@H]1C(=O)O |  | > 100 µM |  | > 100 µM |  | > 100 µM |  | > 100 µM |  | > 100 µM |  | > 100 µM |  | > 100 µM |  | > 100 µM |  | > 100 µM |  | > 100 µM |
| COC(=O)c1ccc2c(c1)nc(NC(=O)c1ccccc1)n2CCCc1ccccc1 | 5.26 µM | > 100 µM | 18.6 µM | > 100 µM | 4.07 µM | > 100 µM | 2.54 µM | > 100 µM | 2.78 µM | > 100 µM | 4.5 µM | > 100 µM | 16.3 µM | > 100 µM | 5.31 µM | > 100 µM | 11.5 µM | > 100 µM | 3.8 µM | > 100 µM |
| COc1ccc(C2SC(N)=Nc3c2c(C)nn3C(=O)c2ccncc2)cc1OC (configuration not stated) |  | > 10 µM |  | > 10 µM |  |  |  | > 10 µM |  | > 10 µM |  | > 10 µM |  | > 10 µM |  | > 10 µM |  | > 10 µM |  | > 10 µM |
| COc1cccc(F)c1C(=O)c1cnc(NC2CCN(S(C)(=O)=O)CC2)nc1N | 3.15 µM | 21.7 µM | 4.13 µM | 9.57 µM | 4.6 µM | 21.9 µM | 0.644 µM | > 11.8 µM | 2.14 µM | > 14.7 µM | 1.44 µM | 13.3 µM | 1.88 µM | 6.19 µM | 1.96 µM | 11.3 µM | 6.54 µM | > 22.8 µM | 3.68 µM | 11.7 µM |
| Cn1c(I)c(C#CCO[Si](C)(C)C(C)(C)C)c(=O)[nH]c1=O | 19.3 µM | 39.5 µM | 16.2 µM | 37.7 µM | 14.6 µM | 28.6 µM | 1.53 µM | 3.6 µM | 1.82 µM | 4.32 µM | 2.43 µM | 4.83 µM | 18.8 µM | 34.3 µM | 4.39 µM | 14.2 µM | 15.3 µM | 28.6 µM | 16.9 µM | 30.9 µM |
| CC(C)NC(=O)OCc1c(COC(=O)NC(C)C)c(-c2cc[n+](COC(=O)C3CC3)cc2)n2c1CCC2 |  | > 100 µM |  | > 100 µM |  | > 100 µM |  | > 100 µM |  | > 100 µM |  | > 100 µM |  | > 100 µM |  | > 100 µM |  | > 100 µM |  | > 100 µM |
| CC(=O)N=C1N(/C=C2\C(=O)Oc3ccccc3C2=O)C(=O)/C(=C/c2cccc(Cl)c2Cl)N1C |  | > 100 µM |  | 57.8 µM |  |  |  | 54.6 µM |  | > 100 µM |  | > 100 µM |  | 84.6 µM |  | 52.5 µM |  | > 100 µM |  | 27.7 µM |
| Nc1ccc([N+](=O)[O-])cc1N=C/C=C/c1ccccc1 | 18.4 µM | > 100 µM | 10.8 µM | 96.6 µM | 4.31 µM | 71.4 µM | 3.48 µM | > 100 µM | 3.89 µM | > 100 µM | 2.64 µM | > 100 µM | 22.7 µM | > 100 µM | 5.05 µM | > 100 µM | 13.9 µM | 64.9 µM | 21.7 µM | > 100 µM |
| C=C1C(=O)OC2CC(C)C(C(CC(C)=O)OC(C)=O)=CCC12 (configuration not stated) |  | 34.3 µM |  | 54.2 µM |  | 29.7 µM |  | 15.5 µM |  | 20.4 µM |  | > 29.3 µM |  | 32.2 µM |  | 21.6 µM |  | 30.1 µM |  | 69.3 µM |
| Nc1nn2cc(F)cnc2c1C(=O)Nc1cncc(F)c1N1CCC(C(=O)N2CCN(C3COC3)CC2)CC1 | 0.0606 µM | 0.498 µM | 0.168 µM | 1.5 µM | 0.284 µM | 2.62 µM | 0.0619 µM | 0.894 µM | 0.0712 µM | 0.762 µM | 0.129 µM | 0.465 µM | 0.11 µM | 0.778 µM | 1.2 µM |  | 0.469 µM | > 100 µM | 0.164 µM | 0.571 µM |
| COc1cccc(C2CC(C)(O)Oc3cc4c(cc32)OCO4)c1O (configuration not stated) |  | 92.9 µM |  | 60.2 µM |  | 97.9 µM |  | > 51.7 µM |  | > 94.3 µM |  | > 59 µM |  | > 79.8 µM |  | > 78.2 µM |  | 73.2 µM |  | 38.5 µM |
| N#Cc1c(NC(=O)NCc2ccccc2)sc2c1CCCCC2 | 0.695 µM | > 59.8 µM | 0.261 µM | 4.91 µM | 0.626 µM | > 100 µM | 0.346 µM | > 100 µM | 0.456 µM | > 100 µM | 0.286 µM | 0.843 µM | 0.352 µM | 2.38 µM | 0.397 µM |  | 0.564 µM | 4.71 µM | 0.328 µM | 1.87 µM |
| COc1cccc(CC(C)=C(c2ccc(OCCN(C)C)cc2)c2ccc(OCCN(C)C)cc2)c1 | 4.42 µM | 9.24 µM | 1.46 µM | 6.28 µM | 3.55 µM | 7.57 µM | 0.787 µM | 2.22 µM | 0.834 µM | 2.39 µM | 0.667 µM | 1.34 µM | 0.779 µM | 4.44 µM | 0.842 µM | 2.24 µM | 3.86 µM | 8.26 µM | 0.589 µM | 1.1 µM |
| C=C(Cl)C(=CCl)CCC(Br)C(C)(C)Cl (mixture of isomers) |  | > 10 µM |  | > 10 µM |  | > 10 µM |  | > 10 µM |  | > 10 µM |  | > 10 µM |  | > 10 µM |  | > 10 µM |  | > 10 µM |  | > 10 µM |
| O=C(Nc1ccc(Nc2ccncc2)cc1)c1ccc([N+](=O)[O-])cc1 | 10.8 µM | > 62.6 µM | 4.26 µM | 20 µM | 3.46 µM | 10.4 µM | 2.32 µM | > 20.4 µM | 3.3 µM | > 33.3 µM | 4.43 µM | > 24.6 µM | 3.35 µM | 12.4 µM | 2.5 µM | 17 µM | 8.87 µM | 42 µM | 3.58 µM | 13.2 µM |
| O=[N+]([O-])c1ccc2[nH]c(=S)[nH]c(=S)c2c1 |  | > 100 µM |  | > 100 µM |  | > 100 µM |  | > 100 µM |  | > 100 µM |  | > 100 µM |  | > 100 µM |  | > 100 µM |  | > 100 µM |  | > 100 µM |
| COc1cccc2c1C(=O)c1c(O)c3c(c(O)c1C2=O)C[C@@](O)(C(=O)CO)C[C@@H]3OC1CC(N)CC(C)O1 (some centres not stated) | 0.0405 µM and 0.0387 µM | 0.325 µM and 0.259 µM | 0.00885 µM and 0.047 µM | 0.195 µM and 0.161 µM | 0.192 µM and 0.362 µM | 0.771 µM and 1.61 µM | 0.00548 µM and 0.02 µM | 0.492 µM and 0.632 µM |  |  | 0.0091 µM and 0.00929 µM and 0.0412 µM | 0.122 µM and 0.939 µM | 0.122 µM and 0.0806 µM | 0.298 µM and 0.369 µM | 0.0178 µM and 0.0704 µM | 0.547 µM and 1.72 µM |  | 0.175 µM and 1.22 µM | 0.0189 µM and 0.0471 µM | 0.194 µM and 0.211 µM |
| C/C=C/C(CC(O)(C(F)(F)F)C(F)(F)F)=N/NC(N)=S |  | > 10 µM |  | > 10 µM |  |  |  | > 10 µM |  | > 10 µM |  | > 10 µM |  | > 10 µM |  | > 10 µM |  | > 10 µM |  | > 10 µM |
| Cc1ccc(SC2c3ccc(C)cc3Oc3nc(N)c(C#N)c(N)c32)cc1 (configuration not stated) |  |  | 1.5 µM | 4.53 µM | 1.18 µM | 2.49 µM | 2.16 µM | 5.54 µM | 2.27 µM | 6.09 µM | 2.09 µM | 5.49 µM | 1.81 µM | 3.28 µM | 2.15 µM | 5.12 µM | 1.86 µM | 3.36 µM | 1.8 µM | 3.82 µM |
| COc1ccc(Sc2[nH]c(C(C)=O)c3ccccc23)cc1 | 14.6 µM | 41.5 µM | 10.7 µM | 51.3 µM | 5.84 µM | 23.4 µM | 1.35 µM | 15.2 µM |  |  | 15 µM | 33.4 µM | 13.6 µM | 39 µM | 10.9 µM | 33.4 µM | 16 µM | 36.8 µM | 14.5 µM | 27.6 µM |
| CC(=O)N(C(C)=O)c1ncc(-n2nc(-c3ccccc3)cc2-c2ccccc2)c(-c2ccccc2)n1 |  | > 10 µM |  | > 10 µM |  |  |  | > 10 µM |  | > 10 µM |  | > 10 µM |  | > 10 µM |  | > 10 µM |  | > 10 µM |  | > 10 µM |
